Values joined by “and” are separate entries in the source; they are usually repeats but may differ in a detail not shown here. Equal entries are not always repeated.
Biological target: PIK3CA (human) (UniProt P42336)
Assay: Assessment of PIK3CA Kinase Activity
Conditions: not given

Chain of PIK3CA (human) (P42336 whole entry, looked up): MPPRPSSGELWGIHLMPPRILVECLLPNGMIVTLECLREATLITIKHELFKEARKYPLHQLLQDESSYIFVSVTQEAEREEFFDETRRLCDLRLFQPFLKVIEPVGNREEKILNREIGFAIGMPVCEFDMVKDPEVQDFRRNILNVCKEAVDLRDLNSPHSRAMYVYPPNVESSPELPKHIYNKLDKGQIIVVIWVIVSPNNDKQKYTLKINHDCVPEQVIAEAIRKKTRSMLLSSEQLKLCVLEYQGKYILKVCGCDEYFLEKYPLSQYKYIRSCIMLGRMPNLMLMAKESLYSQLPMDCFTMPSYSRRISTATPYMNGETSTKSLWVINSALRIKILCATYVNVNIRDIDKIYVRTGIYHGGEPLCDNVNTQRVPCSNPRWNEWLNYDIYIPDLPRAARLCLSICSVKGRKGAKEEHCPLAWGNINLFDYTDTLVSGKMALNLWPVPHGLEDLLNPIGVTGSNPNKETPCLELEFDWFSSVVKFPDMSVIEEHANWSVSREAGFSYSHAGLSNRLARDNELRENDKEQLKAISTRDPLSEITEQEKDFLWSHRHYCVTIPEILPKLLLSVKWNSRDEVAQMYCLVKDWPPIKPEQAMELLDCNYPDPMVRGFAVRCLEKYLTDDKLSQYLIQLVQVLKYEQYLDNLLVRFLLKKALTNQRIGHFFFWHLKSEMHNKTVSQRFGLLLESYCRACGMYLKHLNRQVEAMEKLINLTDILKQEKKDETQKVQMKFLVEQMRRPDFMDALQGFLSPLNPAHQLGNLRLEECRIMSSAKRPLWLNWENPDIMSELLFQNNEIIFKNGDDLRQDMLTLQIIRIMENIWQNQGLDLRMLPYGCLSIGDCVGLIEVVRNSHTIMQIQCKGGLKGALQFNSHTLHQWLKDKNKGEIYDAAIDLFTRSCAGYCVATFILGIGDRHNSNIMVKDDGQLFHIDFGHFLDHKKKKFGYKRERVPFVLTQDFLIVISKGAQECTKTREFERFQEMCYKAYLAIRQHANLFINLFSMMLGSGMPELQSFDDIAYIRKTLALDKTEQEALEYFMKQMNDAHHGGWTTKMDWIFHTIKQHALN

Row | IC50 | Ki | SMILES
1 | 0.015 µM | – | CCC1(O)CCN(c2ncnc(C)c2C#Cc2ccc(N)nc2)CC1
2 | 0.521 µM | – | CCOC(=O)N1CCC(n2ncc3c(N4CCO[C@@H](C)C4)nc(-c4ccc(NC(=O)NCCF)cc4)nc32)CC1
3 | – | 0.04 µM | NC(=O)[C@@H]1CCCN1C(=O)Nc1nc2ccc(-c3cnc(N)c(C(F)(F)F)c3)cc2s1
4 | 0.3 µM | – | NCC(=O)N1CCC(c2cc(N3CCOCC3)nc(-n3c(C(F)F)nc4ccccc43)n2)CC1
5 | 0.3 µM | – | OCc1cccc(-c2cc(-n3c(C(F)F)nc4ccccc43)nc(N3CCOCC3)n2)c1
6 | 0.3 µM | – | O=C(Nc1cccc(-c2cc(N3CCOCC3)nc(-c3cccc(CO)c3)n2)c1)N1CCNCC1
7 | 0.1 µM | – | O=C(Nc1cccc(-c2cc(N3CCOCC3)nc(-c3cccc(CO)c3)n2)c1)C1CCNCC1
8 | 20.1 µM | – | Cc1nc(NCC(=O)N(C)C)cc(-c2c(Nc3ccn(C)n3)nc3cccnn23)n1
9 | 4.55 µM | – | CCOC(=O)N1CCC(n2ncc3c(N4CCO[C@H](C)C4)nc(-c4ccc(NC(=O)NCCF)cc4)nc32)CC1
10 | 0.517 µM | – | CCOC(=O)N1CCC(n2ncc3c(N4CCO[C@H](C)C4)nc(-c4ccc(NC(=O)Nc5ccncc5)cc4)nc32)CC1
11 | 0.104 µM | – | Cc1ncnc(N2CCC(=O)CC2)c1C#Cc1ccc(N)nc1
12 | 0.05 µM | – | CCc1ncnc(N2CCC(O)(CC)CC2)c1C#Cc1ccc(N)nc1
13 | > 100 µM | – | CS(=O)(=O)Cc1cc(N2CCOCC2)nc(-c2ccc(NC(=O)c3ccno3)cc2)n1
14 | 0.553 µM | – | CCNC(=O)Nc1ccc(-c2nc(N3CCO[C@@H](C)C3)c3cnn(C4CCN(C(=O)OCC)CC4)c3n2)cc1
15 | 0.1 µM | – | NCC(=O)N1CCN(c2cc(N3CCOCC3)nc(-n3c(C(F)F)nc4ccccc43)n2)CC1
16 | 0.254 µM | – | CN(C(=O)c1cc2c(s1)-c1ccccc1OC2)c1ccccc1F
17 | 0.077 µM | – | CCOC1CCN(c2ncnc(CC)c2C#Cc2ccc(N)nc2)CC1
18 | 0.1 µM | – | NCC(=O)N1CCN(c2nc(N3CCOCC3)cc(-n3c(C(F)F)nc4ccccc43)n2)CC1
19 | 2.3 µM | – | O=C(Nc1ccc(-c2cc(-n3c(C(F)F)nc4ccccc43)nc(N3CCOCC3)n2)cc1)[C@@H]1CCCCN1
20 | 0.2 µM | – | NCCC1CCN(c2nc(N3CCOCC3)cc(-n3c(C(F)F)nc4ccccc43)n2)CC1
21 | 1.93 µM | – | CC(C)(C)COC(=O)NCc1ccc(NC(=O)Nc2ccc(-c3nc(CS(C)(=O)=O)cc(N4CC5CCC(C4)O5)n3)cc2)cc1
22 | 0.0445 µM | – | NC(=O)c1ccc(NC(=O)Nc2ccc(-c3cc(N4CC5CCC(C4)O5)nc(-c4ccc(NC(=O)Nc5ccc(C(N)=O)cc5)cc4)n3)cc2)cc1
23 | 0.2 µM | – | NC(=O)[C@@H]1CCCN1CC(=O)N1CCN(c2nc(N3CCOCC3)cc(-n3c(C(F)F)nc4ccccc43)n2)CC1
24 | 0.038 µM | – | Cc1ncnc(N2CCC(C)(O)CC2)c1C#Cc1ccc(N)nc1

Row | SMILES | IC50 | Ki
25 | O=C(Nc1ccc(F)cc1)Nc1ccc(-c2nc(N3CCOCC3)nc(N3C4CCC3COC4)n2)cc1 | 0.039 µM | –

Biological target: MAPK14 (human) (UniProt Q16539)
Sequence (Q16539 whole entry, looked up): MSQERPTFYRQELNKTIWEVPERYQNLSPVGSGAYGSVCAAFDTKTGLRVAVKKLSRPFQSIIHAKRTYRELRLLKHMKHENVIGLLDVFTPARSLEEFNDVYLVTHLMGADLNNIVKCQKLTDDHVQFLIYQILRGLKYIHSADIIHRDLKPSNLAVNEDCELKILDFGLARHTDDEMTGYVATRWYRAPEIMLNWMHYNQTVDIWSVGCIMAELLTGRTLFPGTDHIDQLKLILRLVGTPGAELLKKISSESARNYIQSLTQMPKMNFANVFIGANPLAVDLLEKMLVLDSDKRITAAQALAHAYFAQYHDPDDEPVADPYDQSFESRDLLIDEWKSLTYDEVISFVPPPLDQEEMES
Assay: Assessment of MAPK14 Kinase Activity
Conditions: not given

Row | IC50 | SMILES
26 | 0.069 µM and 0.07 µM | CSc1nc(-c2ccc(F)cc2)c(-c2ccncc2)[nH]1

Biological target: CDK2 (UniProt P24941)
Assay: Enzyme Assay
Conditions: not given

Row | IC50 | SMILES
27 | > 20 µM | Cc1ccc2ncc(C3=C(c4cn5c6c(cccc46)CN(C(=O)N4CCCCC4)CC5)C(=O)NC3=O)n2c1
28 | 0.019 µM | FC(F)(F)c1cnc(Nc2ccc3[nH]cnc3c2)nc1Nc1ccc2[nH]cnc2c1

Same assay, conditions: concentration not given here

Row | activity | inhibition | SMILES
29 | 31% | 69% | Nc1n[nH]c(N)c1N=Nc1ccc(O)cc1

Biological target: MAPK14 (human) (UniProt Q16539)
Assay: Enzyme Assay
Conditions: not given

Row | IC50 | SMILES
30 | 0.158 µM | C#Cc1cc(Nc2cc(Oc3ccc(NC(=O)Nc4cc(C(C)(C)C)cc(NS(C)(=O)=O)c4OC)c4ccccc34)ccn2)cc(C(=O)NCCCN2CCOCC2)c1
31 | 0.164 µM | Cc1ccc(-n2nc(C(C)(C)C)cc2NC(=O)Nc2ccc(Oc3ccnc(Nc4cccc(O)c4)n3)c3ccccc23)cc1
32 | > 10 µM | Cc1ccc(NC(=O)c2ccc(F)c(-n3cc(NC(=O)Nc4ccccc4Cl)cn3)c2)cn1
33 | > 10 µM | CCN(CC)CCNC(=O)c1cccc(-n2cc(NC(=O)Nc3ccccc3Cl)cn2)c1
34 | > 10 µM | Cc1ccc(CNC(=O)c2cccc(-n3cc(NC(=O)Nc4ccccc4Cl)cn3)c2)cn1
35 | 0.14 µM | O=C(NCCN1CCOCC1)c1cccc(-n2ncc3cc(Nc4ccccc4)cnc32)c1
36 | 0.002 µM | Nc1c(C(=O)c2ccc(F)cc2F)ccc(=O)n1-c1c(F)cccc1F
37 | < 0.001 µM | Cc1cc(Nc2cc(Oc3ccc(NC(=O)Nc4cc(C(C)(C)C)nn4-c4cccc(OCCN(C)C)c4)c4ccccc34)ccn2)cc2cn[nH]c12
38 | 0.056 µM | COc1cncc(CNc2cc(Oc3ccc(NC(=O)Nc4cc(C(C)(C)C)cc(P(C)(C)=O)c4OC)c4ccccc34)ccn2)c1
39 | 0.001 µM | CC(C)C[C@H](NCCc1cc(F)c(-n2c(N)c(C(=O)c3ccc(F)cc3F)ccc2=O)c(F)c1)C(=O)O
40 | 1.3 µM | O=C(NCCN1CCOCC1)c1ccnc(-n2ncc3cc(Nc4ccccc4Cl)ccc32)c1
41 | 0.48 µM | O=C(NCCN1CCOCC1)c1cc(-n2ncc3cc(Nc4c(Cl)cccc4Cl)ccc32)ccn1
42 | 2.52 µM | COc1ccc(C=CC(=O)Nc2cc(-c3c(-c4ccc(F)cc4)noc3C(C)C)ccn2)c(OC)c1
43 | 0.718 µM | Cc1cccc(-c2[nH]c(CNc3cc(N(C)C)ccc3F)nc2-c2ccc3ncnn3c2)n1
44 | 0.29 µM | O=C1c2ccc(Nc3ccc(F)cc3F)cc2CCc2c(OC3CCOCC3)cccc21
45 | 1.1 µM | N#CC1(c2cccc(C(=O)Nc3cc(Oc4ccc5nc(NC(=O)C6CC6)sc5n4)ccc3F)c2Cl)CC1
46 | 7.3 µM | COc1c(NC(=O)C(=O)c2ccc(OCCN3CCOCC3)c3ccccc23)cc(C(C)(C)C)cc1NS(C)(=O)=O

Biological target: CDK2 (human) (UniProt P24941)
Assay: Enzyme Assay
Conditions: not given

Row | IC50 | SMILES
47 | 2.7 µM | N#CC1(c2cccc(C(=O)Nc3cc(Oc4ccc5nc(NC(=O)C6CC6)sc5n4)ccc3F)c2Cl)CC1

Biological target: MAPK14 (UniProt Q16539)
Sequence (Q16539 whole entry, looked up): as above
Assay: Inhibition of MAPK14 Kinase Activity
Conditions: not given

Row | IC50 | SMILES
48 | 0.024 µM | CNC(=O)c1cc(Oc2ccc(NC(=O)Nc3ccc(Cl)c(C(F)(F)F)c3)c(F)c2)ccn1
49 | 2.2 µM | CN1N=C(c2ccccc2F)Oc2cnc(NC3CCOCC3)nc21
50 | > 1 µM | COc1ccc(Nc2nc(Nc3ccc4nc[nH]c4c3)ncc2C(F)(F)F)cc1
51 | > 20 µM | Cc1ccc2ncc(C3=C(c4cn5c6c(cccc46)CN(C(=O)N4CCCCC4)CC5)C(=O)NC3=O)n2c1
52 | < 0.03 µM | OC1CCC(Nc2ncc3cc(Oc4ccc(F)cc4F)ccc3n2)CC1 (centres undefined)
53 | < 0.001 µM | CS(=O)(=O)N1CCC(Nc2ncc3cc(Oc4ccc(F)cc4F)ccc3n2)CC1
54 | 0.0013 µM | C[C@@H](C(=O)O)N1CCC(c2cc3c(ccc(=O)n3-c3c(Cl)cccc3Cl)c(-c3ccc(F)cc3Cl)n2)CC1
55 | 1.54 µM | O=C(c1cccc2[nH]ccc12)N1CCN(Cc2ccccc2)CC1
56 | 0.25 µM | O=c1ncn2nc(Sc3ccccc3Br)ccc2c1-c1c(Cl)cccc1Cl
57 | 0.0032 µM | C[C@H](C(=O)O)N1CCC(c2cc3c(ccc(=O)n3-c3c(Cl)cccc3Cl)c(-c3ccc(F)cc3Cl)n2)CC1
58 | 5.52 µM | O=C(c1ccc2cc[nH]c2c1)N1CCN(Cc2ccccc2)CC1
59 | > 1 µM | FC(F)(F)c1cnc(Nc2ccc(Br)cc2)nc1Nc1ccc2nc[nH]c2c1
60 | 0.058 µM | CCOc1cc2cnc(NC3CCN(S(C)(=O)=O)CC3)nc2n(C)c1=O
61 | 0.38 µM | Cc1cccc(Cl)c1Nc1nc2ccc(N3CCN[C@@H](C)C3)nc2n2cncc12
62 | 0.034 µM | Cc1ccc(-n2nc(C3(C)CC3)cc2NC(=O)Nc2cnc(OC3CCN(C(=O)C4(C)CC4)CC3)c3ccccc23)cc1
63 | 4 µM | CCn1c(=O)n(CC)c2cc(-c3[nH]c(-c4ccc(S(C)(=O)=O)cc4)nc3-c3ccc(F)cc3)ccc21
64 | > 100 µM | CC[C@@H](N)C(=O)Nc1nc(C)c(-c2ccnc(Nc3cccc([N+](=O)[O-])c3)n2)s1
65 | < 2 µM | OCC(O)CNc1ncc2cc(Oc3ccc(F)cc3F)ccc2n1 (centres undefined)
66 | 27 µM | CSc1nc(-c2ccnc(NC(C)c3ccccc3)c2)c(-c2ccc(F)cc2)n1C (centres undefined)
67 | 0.45 µM | O=c1ncn2nc(Sc3cccc(F)c3)ccc2c1-c1c(Cl)cccc1Cl
68 | 0.189 µM | CN1N=C(c2ccccc2Cl)Oc2cnc(NC3CCOCC3)nc21
69 | > 1 µM | FC(F)(F)c1cnc(Nc2ccc3[nH]cnc3c2)nc1Nc1ccc2[nH]cnc2c1
70 | 4.74 µM | O=C(c1c[nH]c2ccccc12)N1CCN(Cc2ccccc2)CC1

Row | IC50 | SMILES
71 | > 100 µM | CNc1nc(C)c(-c2ccnc(Nc3ccc(N4CCN(Cc5ccccc5)CC4)cc3)n2)s1
72 | 0.22 µM | CSc1nc(-c2ccc(F)cc2)c(-c2ccnc(NC(C)c3ccccc3)c2)n1C (centres undefined)
73 | 7.7 µM | CCOc1cc2cnc(NC(CCOC)CCOC)nc2[nH]c1=O
74 | > 10 µM | CCOc1cc2cnc(NC3CCNCC3)nc2n(C)c1=O
75 | > 100 µM | CNc1nc(C)c(-c2ccnc(Nc3ccc(N4CCOCC4)cc3)n2)s1
76 | > 100 µM | Cc1nc(NC(=O)[C@H](N)[C@@H](C)O)sc1-c1ccnc(Nc2cccc([N+](=O)[O-])c2)n1
77 | 0.023 µM | NC(=O)c1cc(Cl)c(N2C(=O)NCc3nc(Sc4ccc(F)cc4)ccc32)c(Cl)c1
78 | > 10 µM | CCOc1ccc2nc(NC(CCO)CCO)ncc2c1
79 | 1.6 µM | COc1cc2cnc(NC3CCOCC3)nc2n(C)c1=O
80 | < 0.1 µM | CCC(CO)(CO)Nc1ncc2cc(Oc3ccc(F)cc3F)ccc2n1
81 | 0.141 µM | COc1cc2ncnc(Nc3cccc(NC(=O)c4ccccc4)c3)c2cc1OC
82 | 0.0128 µM | Cc1ccccc1C(=O)c1ccc(Nc2cncc3ccccc23)cc1Cl
83 | 2 µM | CS(=O)(=O)CCNc1ncc2cc(Oc3ccc(F)cc3F)ccc2n1
84 | > 100 µM | Cc1nc(N)sc1-c1ccnc(Nc2ccc(N3CCOCC3)cc2)n1
85 | > 10 µM | CCS(=O)(=O)c1ccc(OC)c(Nc2ncc(-c3cccc(-c4ccccc4Cl)c3)o2)c1
86 | 0.264 µM | Cc1ccc(Sc2ccc3c(-c4c(Cl)cccc4Cl)c(=O)ncn3n2)c(C)c1
87 | > 1 µM | FC(F)(F)c1cnc(Nc2ccc3nc[nH]c3c2)nc1Nc1ccccc1Cl
88 | 14.4 µM | Cc1cccc(-n2nnnc2-c2ccc3c(c2)n(C)c(=O)n3C)c1
89 | 1.5 µM | CC(C)(CO)Nc1nccc(CCc2c[nH]c3ccc(N)cc23)n1
90 | 0.031 µM | Cc1cccc(-c2n[nH]cc2-c2ccc(O)cc2)n1
91 | < 0.03 µM | CC(C)Nc1ncc2cc(Oc3ccc(F)cc3F)ccc2n1
92 | 0.63 µM | CSc1nc(-c2ccc(F)cc2)c(-c2ccncc2)[nH]1

Row | SMILES | IC50
93 | COc1cc2ncnc(Nc3cc(NC(=O)c4cccc(N(C)C)c4)ccc3C)c2cc1OC | 0.031 µM
94 | O=c1ncn2nc(Sc3ccc(F)cc3)ccc2c1-c1c(Cl)cccc1Cl | 0.1 µM

Same assay, conditions: concentration not given here

Row | inhibition | SMILES
95 | -6% | O=C1NCc2nc(Sc3ccc(Sc4ccc(F)cc4)cc3)ccc2N1c1c(Cl)cccc1Cl
96 | 46% | NC(=O)c1cccc(Cl)c1N1C(=O)NCc2nc(Sc3ccc(F)cc3)ccc21
97 | 18% | Nc1n[nH]c(N)c1N=Nc1ccc(O)cc1

Biological target: MAPK14 (human) (UniProt Q16539)
Assay: Inhibition of MAPK14 Kinase Activity
Conditions: concentration not given here

Row | activity | SMILES
98 | 82% | Nc1n[nH]c(N)c1N=Nc1ccc(O)cc1

— the Kinase Knowledgebase extract (Sharma et al. 2016)
